Measurements: patent US8507411B2, “Neoglycorandomization and digitoxin analogs” (priority 2004, dated 2013)
Where two headings read alike, the source gives them in different places.

Tests used:
[1] = tested on: Du145; test: High-throughput calcein AM cytotoxicity assay, Du145; format: cell-based, human; conditions: read-out: IC50, Du145
From the text: Standard errors are depicted with error bars.

[2] = molecular target: Na+/K+-ATPase (Cricetulus griseus, UniProt A0A8C2N4Z0); test: Non-radioactive rubidium ion uptake assay, CHO-K1 cells; format: cell-based, hamster; conditions: read-out: Na+/K+-ATPase Inhibition IC50
Protocol: Na/K-ATPase Assays. Inhibition of Na^+/K^+-ATPase on HEK-293 cells and CHO-K1 cells by the library hits was determined by Aurora Biomed, Inc. using a high-throughput non-radioactive rubidium ion uptake assay. Experiments were conducted in duplicate using three different concentrations. Within each experiment, percent inhibition values at the three concentrations were expressed as the percent reduction of the maximum absorption signal observed for a 0 nM control. IC50 values were determined using the following formula: IC50=[(50−low %)/(high %−low %)]×(high conc.−low conc.)+low conc.
To assess how these structural modifications impact the ability of library members to inhibit Na^+/K^+-ATPases, a fundamental activity of cardiac glycosides (Paula, S., et al., (2005) Biochemistry 44, 498-510), library hits 5β, 15β, 23β, 27β, 33β, 40β, and digitoxin (1) were submitted to a non-radioactive rubidium uptake assay to gauge Na^+/K^+-ATPase inhibition in both […] human embryonic kidney cells and CHO-K1 hamster ovary cells (Gill, S. et al., (2004) ASSAY and Drug Development Technologies 2, 535-542).

[3] = tested on: NCI/ADR-RES; test: Cell titer-glo cytotoxicity assay, NCI/ADR-RES; format: cell-based, human
From the text: FIG. 7 is a graphical summary of the results of the IC50 data from cytotoxicity assays. […] In the assay, live cells are quantified by measuring the luminescent signal resulting from the reaction between cellular ATP and luciferin to form oxyluciferin. The IC50 value for each compound represents at least four replicates of dose-response experiments conducted over six concentrations at two-fold dilutions.
The anticancer activities of ten panel analogues (3a-c,e,f and 4a-c,e,f) and digitoxin (1) were assessed using a high-throughput cytotoxicity assay on four human cancer cell lines, (FIG. 7) representing lung, colorectal, and ovarian carcinomas, as well as NCI/ADR-RES, a drug-resistant ovarian carcinoma line (For years, NCI/ADR-RES cells have been misidentified as drug-resistant MCF-7 breast adenocarcinoma cells, but recently this line has been shown definitively to be a drug-resistant line derived from OVCAR-8 ovarian adenocarcinoma cells. Liscovitch, M. et al., Cancer Lett. (2007) 245, 350-352.
All cell lines were maintained as previously reported (Langenhan, J. M. et al., Proc. Natl. Acad. Sci. (2005) 102, 12305-12310.) Cells were harvested by trypsinization using 0.25% trypsin and 0.1% EDTA and then counted in a Cellometer Auto T4 cell counter (Nexcelom, inc), before dilution for assay plating. Cell plating, compound handling and assay set up were performed as previously reported^1 except for the cells were plated in 50 μL volumes in 384 well clear bottom, tissue culture plates (Corning-Costar, Inc). Compounds were added from the 384-well compound stock plates at a 1:100 dilution using a Biomek FX liquid handler equipped with a 384 channel head (Beckman Coulter, Inc.). Cell titer-glo reagent (15 μL) (Promega Corporation, Inc.) was added and incubated for 10 min at room temperature with gentle agitation to lyse the cells. Each plate was read for luminescence. […] IC50 values were determined using XLFit 4.0 as previously reported (see Table 7).

SMILES	IC50 ([1]; Du145 cells) [nM]	IC50 [2] [nM]	IC50 ([3]; Cell titer-glo, read-out: IC50) [nM]	IC50 ([1]; Homo sapiens, DU-145, Du145 cells) [nM]	IC50 ([3]; Homo sapiens) [nM]
CON([C@H]1CC[C@@]2(C)[C@H](CC[C@@H]3[C@@H]2CC[C@]2(C)[C@@H](C4=CC(=O)OC4)CC[C@]32O)C1)[C@H]1OC[C@H](O)[C@H](O)[C@@H]1O [5β, L-riboside]	300	270000	45		
CON([C@H]1CC[C@@]2(C)[C@H](CC[C@@H]3[C@@H]2CC[C@]2(C)[C@@H](C4=CC(=O)OC4)CC[C@]32O)C1)[C@H]1OC[C@H](O)[C@@H](O)[C@@H]1O [23β, L-xyloside]	620	> 500000	72		
CON([C@H]1CC[C@@]2(C)[C@H](CC[C@@H]3[C@@H]2CC[C@]2(C)[C@@H](C4=CC(=O)OC4)CC[C@]32O)C1)[C@@H]1O[C@H](CO)[C@@H](O)[C@H](O)[C@@H]1O [27β, D-mannoside]	1300	> 300000			
C[C@H]1O[C@@H](O[C@H]2[C@@H](O)C[C@H](O[C@H]3[C@@H](O)C[C@H](O[C@H]4CC[C@@]5(C)[C@H](CC[C@@H]6[C@@H]5CC[C@]5(C)[C@@H](C7=CC(=O)OC7)CC[C@]65O)C4)O[C@@H]3C)O[C@@H]2C)C[C@H](O)[C@@H]1O [digitoxin]				260	69
